Source: the supplement of paper PMC13380429

Experiments:
Conditions in all cases: 72 h
Vero E6 [1] = test: drug sensitivity score (DSS) for viability; higher = more toxic; extreme values may be limits of the assay
Calu-3 [2] = test: as above
HepG2 [3] = test: as above
Caco-2 [4] = test: as above
U2OS [5] = test: as above
Vero E6 [6] = test: relative viability EC50 (midpoint between 100% and the lowest measured viability); higher = less toxic
HepG2 [7] = test: as above
U2OS [8] = test: as above
Vero E6 [9] = test: cell viability relative to DMSO; higher = less toxic
Calu-3 [10] = test: as above
HepG2 [11] = test: as above
Caco-2 [12] = test: as above
U2OS [13] = test: as above
Caco-2 [14] = test: relative viability EC50 (midpoint between 100% and the lowest measured viability); higher = less toxic

Compound | drug sensitivity score (Vero E6 [1]) | drug sensitivity score (Calu-3 [2]) | drug sensitivity score (HepG2 [3]) | drug sensitivity score (Caco-2 [4]) | drug sensitivity score (U2OS [5]) | relative viability EC50 (Vero E6 [6]) [µM] | relative viability EC50 (HepG2 [7]) [µM] | relative viability EC50 (U2OS [8]) [µM] | cell viability (Vero E6 [9]; 1 nM) [%] | cell viability (Vero E6 [9]; 10 nM) [%] | cell viability (Vero E6 [9]; 100 nM) [%] | cell viability (Vero E6 [9]; 1000 nM) [%] | cell viability (Vero E6 [9]; 10000 nM) [%] | cell viability (Calu-3 [10]; 1 nM) [%] | cell viability (Calu-3 [10]; 10 nM) [%] | cell viability (Calu-3 [10]; 100 nM) [%] | cell viability (Calu-3 [10]; 1000 nM) [%] | cell viability (Calu-3 [10]; 10000 nM) [%] | cell viability (HepG2 [11]; 1 nM) [%] | cell viability (HepG2 [11]; 10 nM) [%] | cell viability (HepG2 [11]; 100 nM) [%] | cell viability (HepG2 [11]; 1000 nM) [%] | cell viability (HepG2 [11]; 10000 nM) [%] | cell viability (Caco-2 [12]; 1 nM) [%] | cell viability (Caco-2 [12]; 10 nM) [%] | cell viability (Caco-2 [12]; 100 nM) [%] | cell viability (Caco-2 [12]; 1000 nM) [%] | cell viability (Caco-2 [12]; 10000 nM) [%] | cell viability (U2OS [13]; 1 nM) [%] | cell viability (U2OS [13]; 10 nM) [%] | cell viability (U2OS [13]; 100 nM) [%] | cell viability (U2OS [13]; 1000 nM) [%] | cell viability (U2OS [13]; 10000 nM) [%] | relative viability EC50 (Caco-2 [14]) [µM]
COC(=O)Nc1nc2cc(C(=O)c3ccccc3)ccc2[nH]1 [mebendazole] | 5.9 | 3.4 | 10.1 | 7 | 7.3 | 1.59 | 0.387 | 0.774 | 111 | 97.6 | 102 | 84.7 | 35.6 | 81.1 | 107 | 95 | 84.6 | 61.3 | 97.5 | 109 | 102 | 44.3 | 40.9 | 91.6 | 104 | 88.4 | 67.2 | 55.6 | 95.5 | 102 | 95.5 | 66 | 41.2 | 
COc1cc(NC(=O)Nc2cccc(CNC(=O)O[C@H]3CCOC3)c2)ccc1-c1cnco1 [merimepodib] | 0 | 3.6 | 4.3 |  | 3.7 |  |  |  |  |  |  |  |  |  |  |  |  |  |  |  |  |  |  |  |  |  |  |  |  |  |  |  |  | 
COC(=O)Nc1nc2cc(SC(C)C)ccc2[nH]1 [methiazole] | 4.7 | 4 | 6.1 | 4.8 | 5.4 | 1.61 | 1.53 | 1.62 | 91.9 | 103 | 92.6 | 86.6 | 47.5 | 95.5 | 97 | 103 | 81.6 | 64.6 | 95 | 105 | 95.7 | 83.4 | 35 | 104 | 100 | 99.1 | 86.8 | 49 | 101 | 97.6 | 99.9 | 86.4 | 41.1 | 1.52
CN(C)C(=O)Oc1cccc([N+](C)(C)C)c1 [neostigmine] | 0 |  |  | 0 | 0 | > 10 |  | > 10 | 91.1 | 93.1 | 90.6 | 94.8 | 112 |  |  |  |  |  |  |  |  |  |  | 97.2 | 91.9 | 100 | 93.7 | 99.2 | 97.8 | 95.7 | 102 | 97.9 | 100 | > 10
CCOc1ccc(C(=O)OCCN(CC)CC)cc1 [parethoxycaine] | 0 |  | 0 | 0 | 0 | > 10 | > 10 | > 10 | 94.6 | 95.6 | 92.3 | 97.5 | 111 |  |  |  |  |  | 98.6 | 116 | 106 | 108 | 102 | 97.1 | 85.1 | 95.6 | 93.7 | 104 | 101 | 92.8 | 103 | 98.1 | 98.8 | > 10
C=C(C)[C@@H]1CC=C(CO)CC1 [perillyl-alcohol] | 0 |  | 0 | 0 | 0 | > 10 | > 10 | > 10 | 98 | 102 | 98 | 95.5 | 96 |  |  |  |  |  | 101 | 93.2 | 108 | 94.5 | 92.9 | 99 | 99.6 | 102 | 102 | 98.6 | 105 | 98.2 | 98.8 | 95.6 | 98.5 | > 10
Nc1ccc(C(=O)Oc2ccccc2)c(O)c1 [phenyl-aminosalicylate] | 0 | 0 | 1 |  | 0 |  |  |  |  |  |  |  |  |  |  |  |  |  |  |  |  |  |  |  |  |  |  |  |  |  |  |  |  | 
CCCc1cc(=O)[nH]c(=S)[nH]1 [propylthiouracil] | 0 | 0 |  |  | 0 |  |  |  |  |  |  |  |  |  |  |  |  |  |  |  |  |  |  |  |  |  |  |  |  |  |  |  |  | 
CN(N=O)C(=O)N[C@@H](C=O)[C@@H](O)[C@H](O)[C@H](O)CO [streptozotocin] | 0 |  | 0 | 1 | 0 | > 10 | > 10 | > 10 | 98.5 | 98.1 | 98.4 | 96.7 | 92.6 |  |  |  |  |  | 98.3 | 90.7 | 104 | 101 | 101 | 106 | 82.3 | 79.9 | 85.2 | 96.2 | 106 | 97.5 | 100 | 102 | 103 | > 10
COC[C@H]1OC(=O)c2coc3c2[C@@]1(C)C1=C(C3=O)[C@@H]2CCC(=O)[C@@]2(C)C[C@H]1OC(C)=O [wortmannin] | 1.7 | 7.9 | 0.3 | 9.1 | 2.8 | > 10 | > 10 |  | 106 | 103 | 97.3 | 88.9 | 76.8 | 93.8 | 90.6 | 82.7 | 69.5 | 51.4 | 98.4 | 97.4 | 98.2 | 98.2 | 86.7 | 102 | 99.3 | 88.2 | 58.3 | 40.8 | 95.1 | 99.3 | 94.1 | 91.1 | 65.1 | 0.409
